Measurements: patent US12077503B2, “Substituted cyclic amides and their use as herbicides” (FMC CORPORATION, priority 2015, dated 2024)
Read-outs that look alike come from different tables or passages of the source.

Legend:
[1] = system: barnyardgrass (Echinochloa crus-galli); experiment: Test A postemergence; type: in vivo; conditions: Echinochloa crus-galli, post-emergence, 240 h; for pest or weed control at 125 g/ha: 125 g ai/ha; for pest or weed control at 500 g/ha: 500 g ai/ha
Procedure, shortened: (§1)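 Preemergence soil spray on seeded pots or post-emergence spray on 1–2 leaf plants, in loam–sand blend. Greenhouse ~10 d. Visual rating 0–100 against untreated plants.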

[2] = system: Galium (catchweed bedstraw, Galium aparine); experiment: Test A postemergence; type: in vivo; conditions: Galium, post-emergence, 240 h; for pest or weed control at 125 g/ha: 125 g ai/ha; for pest or weed control at 500 g/ha: 500 g ai/ha
Procedure, shortened: as §1

[3] = system: wheat (Triticum aestivum); experiment: Test A postemergence; type: in vivo; conditions: Triticum aestivum, post-emergence, 240 h; for plant injury at 125 g/ha: 125 g ai/ha; for plant injury at 500 g/ha: 500 g ai/ha, visual injury, 0 to 100 scale (0 no effect, 100 complete control), approx. 10 d
Procedure, shortened: as §1

[4] = system: ragweed (common ragweed, Ambrosia elatior); experiment: Test A postemergence; type: in vivo; conditions: Ambrosia artemisiifolia, post-emergence, 240 h; for pest or weed control at 125 g/ha: 125 g ai/ha; for pest or weed control at 500 g/ha: 500 g ai/ha
Procedure, shortened: as §1

[5] = system: blackgrass (Alopecurus myosuroides); experiment: Test A postemergence; type: in vivo; conditions: Alopecurus myosuroides, post-emergence, 240 h; for pest or weed control at 125 g/ha: 125 g ai/ha; for pest or weed control at 500 g/ha: 500 g ai/ha
Procedure, shortened: as §1

corn (Zea mays) = experiment: Test A postemergence; type: in vivo; conditions: Zea mays, post-emergence, 240 h; for plant injury at 125 g/ha / Corn plant response rating (crop injury, 0 = no effect, 100 = complete kill) at 125 g/ha: 125 g ai/ha; for plant injury at 125 g/ha: read-out: Corn plant response rating (0 to 100 scale); for Corn plant response rating (crop injury, 0 = no effect, 100 = complete kill) at 500 g/ha: visual injury, 0 to 100 scale (0 no effect, 100 complete control), approx. 10 d; for Corn plant response rating (crop injury, 0 = no effect, 100 = complete kill) at 125 g/ha: visual injury after approx. 10 d, 100 complete control
Procedure, shortened: as §1

[6] = Postemergence, visual rating about 10 d after treatment, read-out: Barnyardgrass plant response rating (0 to 100 scale, 0 no effect, 100 complete control)
[7] = Postemergence, visual injury, 0 to 100 scale (0 no effect, 100 complete control), approx. 10 d, read-out: Plant response rating, Barnyardgrass
[8] = Postemergence, visual rating about 10 d after treatment, read-out: Galium plant response rating (0 to 100 scale)
[9] = Postemergence, visual injury, 0 to 100 scale (0 no effect, 100 complete control), approx. 10 d, read-out: Plant response rating, Galium
[10] = Postemergence, visual rating about 10 d after treatment, read-out: Wheat plant response rating (0 to 100 scale)
[11] = Postemergence, read-out: Plant response rating, Wheat
[12] = Postemergence, visual rating about 10 d after treatment, read-out: Ragweed plant response rating (0 to 100 scale)
[13] = Postemergence, visual injury, 0 to 100 scale (0 no effect, 100 complete control), approx. 10 d, read-out: Plant response rating, Ragweed
[14] = Postemergence, visual rating about 10 d after treatment, read-out: Blackgrass plant response rating (0 to 100 scale)
[15] = Postemergence, visual injury, 0 to 100 scale (0 no effect, 100 complete control), approx. 10 d, read-out: Plant response rating, Blackgrass
[16] = Postemergence, visual rating about 10 d after treatment
[17] = Postemergence, visual injury after approx. 10 d, 0 to 100 scale, 0 no effect, 100 complete control, read-out: Plant response rating, Barnyardgrass
[18] = Postemergence, visual injury after approx. 10 d, 0 to 100 scale, 0 no effect, 100 complete control, read-out: Plant response rating, Galium
[19] = Postemergence, visual injury after approx. 10 d, 0 to 100 scale, 0 no effect, 100 complete control, read-out: Plant response rating, Wheat
[20] = Postemergence, visual injury after approx. 10 d, 0 to 100 scale, 0 no effect, 100 complete control, read-out: Plant response rating, Ragweed
[21] = Postemergence, visual injury after approx. 10 d, 0 to 100 scale, 0 no effect, 100 complete control, read-out: Plant response rating, Blackgrass

Row | melting point [°C] | Structure (SMILES) | pest or weed control at 125 g/ha [1, 6] [%] | pest or weed control at 500 g/ha [1, 7] [%] | pest or weed control at 125 g/ha [2, 8] [%] | pest or weed control at 500 g/ha [2, 9] [%] | plant injury at 125 g/ha [3, 10] [%] | plant injury at 500 g/ha [3, 11] [%] | pest or weed control at 125 g/ha [4, 12] [%] | pest or weed control at 500 g/ha [4, 13] [%] | pest or weed control at 125 g/ha [5, 14] [%] | pest or weed control at 500 g/ha [5, 15] [%] | plant injury at 125 g/ha (corn (Zea mays); [16]) [%] | Corn plant response rating (crop injury, 0 = no effect, 100 = complete kill) at 500 g/ha (corn (Zea mays); Postemergence, 500 g ai/ha) [%] | pest or weed control at 125 g/ha [1, 17] [%] | pest or weed control at 125 g/ha [2, 18] [%] | plant injury at 125 g/ha [3, 19] [%] | pest or weed control at 125 g/ha [4, 20] [%] | pest or weed control at 125 g/ha [5, 21] [%] | Corn plant response rating (crop injury, 0 = no effect, 100 = complete kill) at 125 g/ha (corn (Zea mays); Postemergence, 0 to 100 scale) [%] | further results
1 | 139 to 142 | O=C1NC[C@H](c2cccc(C(F)(F)F)n2)[C@H]1C(=O)Nc1cccc(F)c1F [Compound 1385] | – | 90 | – | 50 | – | 20 | – | 0 | – | 20 | – | 20 | 80 | 30 | 0 | 0 | 20 | 0 | –
2 | 206 to 209 | O=C1NC[C@H](c2cncc(C(F)(F)F)c2)[C@H]1C(=O)Nc1cccc(F)c1F [Compound 1394] | – | 90 | – | 60 | – | 60 | – | 20 | – | 60 | – | 70 | 90 | 50 | 0 | 0 | 0 | 40 | –

Continued, compound first:

Row | Structure (SMILES) | melting point [°C] | pest or weed control at 125 g/ha [1, 6] [%] | pest or weed control at 500 g/ha [1, 7] [%] | pest or weed control at 125 g/ha [2, 8] [%] | pest or weed control at 500 g/ha [2, 9] [%] | plant injury at 125 g/ha [3, 10] [%] | plant injury at 500 g/ha [3, 11] [%] | pest or weed control at 125 g/ha [4, 12] [%] | pest or weed control at 500 g/ha [4, 13] [%] | pest or weed control at 125 g/ha [5, 14] [%] | pest or weed control at 500 g/ha [5, 15] [%] | plant injury at 125 g/ha (corn (Zea mays); [16]) [%] | Corn plant response rating (crop injury, 0 = no effect, 100 = complete kill) at 500 g/ha (corn (Zea mays); Postemergence, 500 g ai/ha) [%] | pest or weed control at 125 g/ha [1, 17] [%] | pest or weed control at 125 g/ha [2, 18] [%] | plant injury at 125 g/ha [3, 19] [%] | pest or weed control at 125 g/ha [4, 20] [%] | pest or weed control at 125 g/ha [5, 21] [%] | Corn plant response rating (crop injury, 0 = no effect, 100 = complete kill) at 125 g/ha (corn (Zea mays); Postemergence, 0 to 100 scale) [%] | further results
3 | Cc1ccccc1NC(=O)[C@H]1C(=O)N(C)C[C@@H]1c1ccc(C(F)(F)F)cc1 [Compound 1239] | 123 to 127 | – | – | – | – | – | – | – | – | – | – | – | – | – | – | – | – | – | – | pest or weed control at 125 g/ha ([1]; postemergence, visual injury vs untreated controls after approx. 10 d, 0 = no effect, 100 = complete control, read-out: Barnyardgrass plant response rating (0 to 100 scale)): 90%; pest or weed control at 500 g/ha ([1]; postemergence, 0 to 100 scale, 0 is no effect, 100 is complete control, read-out: Barnyardgrass plant response rating): 80%; pest or weed control at 125 g/ha ([2]; postemergence, visual injury vs untreated controls after approx. 10 d, 0 = no effect, 100 = complete control, read-out: Galium plant response rating (0 to 100 scale)): 60%; pest or weed control at 500 g/ha ([2]; postemergence, 0 to 100 scale, 0 is no effect, 100 is complete control, read-out: Galium plant response rating): 60%; plant injury at 125 g/ha ([3]; postemergence, visual injury vs untreated controls after approx. 10 d, 0 = no effect, 100 = complete control, read-out: Wheat plant response rating (0 to 100 scale)): 30%; pest or weed control at 125 g/ha ([4]; postemergence, visual injury vs untreated controls after approx. 10 d, 0 = no effect, 100 = complete control, read-out: Ragweed plant response rating (0 to 100 scale)): 20%; pest or weed control at 500 g/ha ([4]; postemergence, 0 to 100 scale, 0 is no effect, 100 is complete control, read-out: Ragweed plant response rating): 60%; pest or weed control at 125 g/ha ([5]; postemergence, visual injury vs untreated controls after approx. 10 d, 0 = no effect, 100 = complete control, read-out: Blackgrass plant response rating (0 to 100 scale)): 70%; pest or weed control at 500 g/ha ([5]; postemergence, 0 to 100 scale, 0 is no effect, 100 is complete control, read-out: Blackgrass plant response rating): 80%; plant injury at 125 g/ha (corn (Zea mays); postemergence, visual injury vs untreated controls after approx. 10 d, 0 = no effect, 100 = complete control): 50%; plant injury at 500 g/ha (corn (Zea mays); 500 g ai/ha, postemergence, 0 to 100 scale, 0 is no effect, 100 is complete control, read-out: Corn plant response rating): 70%
4 | C=CCOc1cccc(C2CN(C)C(=O)C2C(=O)Nc2ccccc2F)c1 (centres unmarked) [Compound 1329] | 81 to 84 | 90 | 90 | 30 | 60 | 0 | 20 | 0 | 0 | 20 | 60 | 30 | 50 | – | – | – | – | – | – | –
5 | CN1CC[C@H](c2cccc(C(F)(F)F)c2)[C@@H](C(=O)Nc2cccc(F)c2F)C1=O [Compound 1330] | 54 to 57 | 90 | 90 | 30 | 30 | 50 | 70 | 0 | 20 | 50 | 70 | 90 | 0 | – | – | – | – | – | – | –
6 | CN1CC[C@H](c2cccc(C(F)(F)F)c2)[C@@H](C(=O)Nc2ccccc2F)C1=O [Compound 1331] | 113 to 116 | 90 | 90 | 0 | 0 | 0 | 50 | 0 | 0 | 20 | 50 | 20 | 70 | – | – | – | – | – | – | –
